Laboratory results published in US12629355B2, “Drug inhibitor against migration and invasion of cancer cells and methods of treating against metastasis of cancer cells” (HOWARD UNIVERSITY, priority 2019, dated 2026).

How the values were obtained:
Format in all cases: cell-based
[1] = test system: U251 cells; experiment: Filipodia/lamellipodia development of TGF-induced cells on Matrigel, Giemsa stain (FIG. 2, FIG. 4)
Experimental: After incubation, media and matrigels were carefully removed and adherent cells were washed three times with 1×PBS; to visualize cells, cells were incubated with Giemsa Stain (Sigma-Aldrich) (1:20 with water) for 10 minutes, washed in water until no blue color rinsed out from the well images under a Zeiss Compound microscope.
It is shown in the FIG. 2 and FIG. 3 that 100 uM of SD 29-14 is effective in inhibiting the migration potential of the two different representative cancer cell lines, which establishes this drug as a candidate anti-metastasis drug for treating against cancers where a role of RACK1 upregulation is or has been shown in the metastasis process. There are many reviews on the RACK1 protein the cancer cell migration (e.g., Li and Xie, 2015; Duff and Long, 2017, among others).
Efficacy for inhibiting migration at a lower concentration of a representative compound was also investigated. Cancer cell lines were treated under conditions as used above for FIG. 2 and FIG. 3 but with both 10 μM and 100 μM SD29-14.

[2] = test system: N-cadherin; experiment: Protein expression of EMT marker N-cadherin, western blot (FIG. 8); details: U251 cells, serum starved 24 h, with or without TGFb, 6 days
Excerpt: The inhibition of EMT marker by a representative compound (SD 29-14) in comparison to other compounds (SD 29, and SD 29-12). A large family of cadherin molecules are expressed in a cancer cell-type specific manner and among them, N-cadherin is reported to be expressed in mesenchymal cells (e.g., Li and Feng, 2011; Alizadeh et al., 2014). […] Up-regulation of N-cadherin reduces cancer cell adhesion ability to epithelial cells, increases adhesion to stromal cells, and leads to subsequent invasion of tumor cells into stroma (Guan 2015). N-cadherin promotes cell migration and metastasis regardless of the expression and function of E-cadherin (Hazan et al., 2000). […] The N-cadherin expression correlates with RACK1 expression (lower panel). The coomassie stained gel is used as the loading control.
As to FIG. 8, U251 cells starved (no serum) for 24 h and then treated with the indicated compounds with or without the TGFb and again replenished with the compounds and TGFb after 3 days. After allowing to grow for 6 days, the cells were washed three times in PBS. […] After overnight incubation, the membrane was washed 3× in PBST and then incubated with a horseradish peroxidase-coupled secondary antibody for an hour at room temperature and the bands were detected with enhanced chemiluminescence (Pierce, Rockford, IL, USA), according to standard methods.

[3] = test system: pY397-FAK; experiment: pY397-FAK expression, immunofluorescence (FIG. 14); details: MCF7 cells, 96 h, 5 ng/ml TGF-beta
Excerpt: (§1) As to FIGS. 14 and 15, in order to evaluate the effect of a representative compound (SD 29-14) as a drug for inducing functional inactivation of RACK1 on the FAK phosphorylation, the drug was used in testing with breast cancer cells (MCF7, FIG. 14) and with glioblastoma cancer cells (U251, FIG. 15). In this immunofluorescence experiment, the pY397-FAK expressing cells were stained with FITC tagged secondary antibody (green) and RACK1 was stained with TRITC tagged secondary antibody (red). Here 5 ng/ml TGFbeta was used to induce cell migration. […] As discussed above, without the pY397-FAK present, the connection between the ECM and cell interiors will be disrupted which will inhibit the cell's potential to migrate by initiating the cell's adhesion to the ECM.
(§2) As to FIGS. 14 and 15, and the methods, the immunofluorescence experiments are essentially same as described with reference to FIG. 9 with a slight modification in the duration of the drug treatment. The cancer cells (MCF7 or U251) were incubated with a drug (SD 29-14) or with DMSO (left panel) for 96 h in the presence of 5 ng/ml TGF-beta. After indicated incubation period, the cells were fixed and stained with antibody as described for FIG. 9 methods.

[4] = test system: pY397-FAK; experiment: pY397-FAK expression, immunofluorescence (FIG. 15); details: U251 cells, 96 h, 5 ng/ml TGF-beta
Excerpt: as §1, §2

[5] = test system: U251 cells; experiment: Migration through Matrigel, cell shape differentiation (FIG. 16-19)
Experimental: Within 24 h of the placement of the cells on the matrigel, the cells were able to migrate through the matrigel and were captured on the glass coverslip beneath the matrigel layer.
The cells are labeled with an antibody (pY397-FAK) and detected with a rabbit-TRITC secondary antibody. The antibody staining allowed to visualize the cells clearly but the autofluorescence of the Matrigel made it hard to pinpoint the precise localization of the pY397-FAK protein.
As to FIG. 19, and related methods, freshly harvested 10^5 cells in MEM no serum media+/−drugs (500 μl) placed on coverslip covered with 200 μl of 1:12 matrigel diluted with MEM serum free media in a 24 well plate. After 24 h, the matrigel was carefully removed by tilting wells and drawing from the tilted side of the wells and washing thoroughly with PBS to remove the matrigel completely (all crumbs removed as their auto fluorescence makes background during imaging) and then were fixed 10 minutes with 4% paraformaldehyde. Washed 2× with PBS; use 5% Urea to treat the cells at 95 C for 10 minutes, wash 2×PBS; permeabilize with 0.5% saponin in PBS; block cells with 3% BSA in PBST for 30 min; Overnight Primary antibody (ThermoFisher Cat #70025-pFAK397 rabbit at 1:250) in 1% BSA in PBST at 4 C, secondary (Rabbit-TRITC) also 1% BSA in PBST for one hour (1:1000).

SMILES: Nn1c(S)nnc1-c1cc(Cl)cc(Cl)c1 [SD 29-14]
- efficacy to inhibit filipodia and lamellipodia development ([1]; 10 μM, 72 h grown (FIG. 4)): maintained
- filipodia and lamellipodia development ([1]; 100 uM, TGF on Matrigel, 48 h treated then 20 h on Matrigel): inhibition of the filipodia and lamellipodia development
- N-cadherin expression [2]: down-regulated N-cadherin expression
- expression of pY397-FAK at the cell protrusions [3]: almost completely inhibited
- expression of pY397-FAK at the cell protrusions [4]: almost completely inhibited
- filipodia, invadopodia, lamellipodia structures and cell-cell adhesion during invasion through matrigel ([5]; 10 μM, 24 h (FIG. 17)): those structures where inhibited and the cells mostly maintained their cell-cell adhesion
- filipodia, invadopodia, lamellipodia structures and cell-cell adhesion during invasion through matrigel ([5]; 100 μM, 24 h (FIG. 18)): those structures where inhibited and the cells mostly maintained their cell-cell adhesion
